{
  "source": "patent US8133709B2",
  "about": "“Target sequences for synthetic molecules” (Life Technologies Corporation, priority 2003, dated 2012)",
  "key": {"SlyD-C167A/C168A": {"biological_target": "T1, SlyD-C167A/C168A (Escherichia coli, UniProt P0A9K9, C167A/C168A)", "T1 construct": "Lane 2 is full length, hexahistidine tagged SlyD with two point mutations; made in house; host or cells: Cell-free: Expressway in vitro protein synthesis kit (S30 E. coli extract)", "T1 sequence (P0A9K9 with tags, fused parts or gaps C167A/C168A)": "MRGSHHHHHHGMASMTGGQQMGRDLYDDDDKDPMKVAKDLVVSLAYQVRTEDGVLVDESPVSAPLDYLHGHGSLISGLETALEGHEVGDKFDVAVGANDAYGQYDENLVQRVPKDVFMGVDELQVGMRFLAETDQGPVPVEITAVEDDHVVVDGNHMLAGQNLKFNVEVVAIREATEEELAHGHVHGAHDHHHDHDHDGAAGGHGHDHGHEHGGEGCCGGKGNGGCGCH", "test": "Binding mode: FlAsH-EDT2 labeling of in vitro synthesised SlyD versions, SDS-PAGE", "settings": "10 μM in LDS sample buffer; FIG. 15", "description": "(§1) The mode of binding of a biarsenical to a target sequence was examined using the Expressway™ in vitro protein synthesis kit (Invitrogen, Carlsbad, Calif.) and SDS-PAGE. Following the manufacture's protocol 1 μg of SlyD+His tag (SEQ. ID NO: 8), SlyD-C167A/C168A (SEQ. ID NO: 9), and SlyD-trunc171 (SEQ. ID NO: 10) vector DNAs were added to a total volume of 50 μL of S30 E. coli extract and reaction buffer. The reaction was placed at 37° C. with 225 rpm shaking for two hours. After incubation 5 μL of RNase A was added to the reaction, after which an additional 15 minute incubation at 37° C. was performed. Protein from the in vitro protein synthesis reaction was prepared for SDS-PAGE analysis through an acetone precipitation procedure. 5 μl of reaction was added to 20 μL of 100% acetone. After mixing well the acetone solution was centrifuged for 5 minutes at room temperature in a microcentrifuge at 12,000 rpm. The supernatant was removed and the pellet was allowed to dry for 5 minutes. The pellet was resuspended in a 50 μL volume of LDS sample buffer (Invitrogen, Carlsbad, Calif.) containing 10 μM FlAsH-EDT2. The samples were heated to 70° C. for 10 minutes and 10 μL of the samples were then loaded onto a 4-12% NuPAGE® pre-cast gel (Invitrogen, Carlsbad, Calif., Catalog #NP0239 Box) using MES running buffer. The gel was electrophoresed at 200 volts for about 30 minutes. Immediately following electrophoresis the gel was removed from the cassette and visualized on a UV light box."}, "SlyD+His tag": {"biological_target": "T2, SlyD+His tag (Escherichia coli, UniProt P0A9K9)", "T2 construct": "Lane 1 is full length, hexahistidine tagged SlyD (SlyD+His tag); made in house; host or cells: Cell-free: Expressway in vitro protein synthesis kit (S30 E. coli extract)", "T2 sequence (P0A9K9 with tags, fused parts or gaps)": "as the sequence (P0A9K9 with tags, fused parts or gaps C167A/C168A) above, with A200C, A201C counted along it", "test": "Binding mode: FlAsH-EDT2 labeling of in vitro synthesised SlyD versions, SDS-PAGE", "settings": "10 μM in LDS sample buffer; FIG. 15", "description": "as §1"}, "SlyD-trunc171": {"biological_target": "T3, SlyD-trunc171 (Escherichia coli, UniProt P0A9K9)", "T3 construct": "a hexahistidine tagged version of SlyD truncated after position 171 (SlyD-trunc171); made in house; host or cells: Cell-free: Expressway in vitro protein synthesis kit (S30 E. coli extract)", "T3 sequence (P0A9K9 with tags, fused parts or gaps)": "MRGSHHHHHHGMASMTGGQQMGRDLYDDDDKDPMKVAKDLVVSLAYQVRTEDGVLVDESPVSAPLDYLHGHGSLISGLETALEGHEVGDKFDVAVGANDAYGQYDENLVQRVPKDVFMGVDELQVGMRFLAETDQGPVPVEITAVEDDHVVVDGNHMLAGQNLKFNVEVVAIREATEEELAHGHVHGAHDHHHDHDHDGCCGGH", "test": "Binding mode: FlAsH-EDT2 labeling of in vitro synthesised SlyD versions, SDS-PAGE", "settings": "10 μM in LDS sample buffer; FIG. 15", "description": "as §1"}, "[1]": {"biological_target": "T4, ACP-CCPGCC (tetracysteine version of Acyl Carrier protein) (Escherichia coli, UniProt P0A6A8)", "T4 construct": "made in house; host or cells: Cell-free: Expressway in vitro protein synthesis kit (S30 E. coli extract)", "T4 sequence (P0A6A8 with tags, fused parts or gaps)": "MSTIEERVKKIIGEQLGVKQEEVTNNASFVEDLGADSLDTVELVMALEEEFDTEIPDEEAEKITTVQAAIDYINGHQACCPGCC", "test": "FlAsH-EDT2 labeling of in vitro synthesised protein, SDS-PAGE, UV light box", "format": "binding", "settings": "10 μM in LDS sample buffer, 70° C. 10 minutes; control; FIG. 14", "description": "In vitro protein synthesis was carried out using the Expressway™ in vitro protein synthesis kit (Invitrogen, Carlsbad, Calif., Catalog #K9600-02). Following the manufacture's protocol 1 μg of AcpS vector DNA was added to a total volume of 50 μL of S30 E. coli extract and reaction buffer. As a control, a tetracysteine (CCPGCC) (SEQ. ID NO: 53) version of Acyl Carrier protein (ACP) (SEQ. ID NO: 7) was also expressed via the Expressway™ kit. The reaction was placed at 37° C. with 225 rpm shaking for two hours. After incubation 5 μL of RNase A was added to the reaction, after which an additional 15 minute incubation at 37° C. was performed. Protein from the in vitro protein synthesis reaction was prepared for SDS-PAGE analysis through an acetone precipitation procedure. 5 μl of reaction was added to 20 μL of 100% acetone. After mixing well the acetone solution was centrifuged for 5 minutes at room temperature in a microcentrifuge at 12,000 rpm. The supernatant was removed and the pellet was allowed to dry for 5 minutes. The pellet was resuspended in a 50 μL volume of LDS sample buffer (Invitrogen, Carlsbad, Calif., Catalog #NP0007) containing 10 μM FlAsH-EDT2. The samples were heated to 70° C. for 10 minutes and 10 μL of the samples were then loaded onto a 4-12% NUPAGE® pre-cast gel (Invitrogen, Carlsbad, Calif.) using MES running buffer. […]"}, "[2]": {"biological_target": "T5, SlyD+His tag (SlyD tetracysteine sequence) (Escherichia coli, UniProt P0A9K9)", "T5 construct": "made in house; host or cells: E. coli BL21 (DE3), pRSET vector, Ni-NTA purified", "T5 sequence (P0A9K9 with tags, fused parts or gaps)": "as the sequence (P0A9K9 with tags, fused parts or gaps C167A/C168A) above, with A200C, A201C counted along it", "test": "Specificity: labeling of a mixture of purified proteins, SDS-PAGE, laser gel scanner", "format": "binding", "settings": "10 μM in SDS-PAGE sample buffer; ACP:SlyD approximately 2:1; FIG. 17", "description": "The native SlyD sequence (SEQ. ID NO: 4) was cloned into the pRSET vector (Invitrogen, Carlsbad, Calif.) using standard molecular biology techniques. Purified protein was produced from this vector by first transforming BL21 (DE3) cells (Invitrogen, Carlsbad, Calif., Catalog #C6010-03) and plated on LB-ampicillin plates. A single colony was selected and grown in one liter of liquid LB broth to a density of 1 O.D. and 1 mM IPTG was added to induce protein expression. After three hours of protein induction the culture was harvested by centrifugation at 10,000×g for 5 minutes at 4° C. The cell pellet was resuspended in 50 mM HEPES (pH 7.5), 140 mM NaCl and sonicated on ice for a total of two minutes. The E. coli lysate was separated by centrifugation at 25,000×g for 20 minutes at 4° C. The supernatant contained the soluble protein and consequently it was loaded onto a Ni^2+-NTA column equilibrated in 50 mM HEPES (pH 7.5), 140 mM NaCl buffer. The column was washed with three column volumes of 50 mM HEPES (pH 7.5), 140 mM NaCl and non-specific binding proteins were removed by washing with 50 mM HEPES (pH 7.5), 140 mM NaCl, and 20 mM Imidazole. To elute the desired hexahistidine tagged SlyD, a solution of 50 mM HEPES (pH 7.5), 140 mM NaCl, and 250 mM Imidazole was added to the column. The protein eluted at greater than 90% purity. […]"}, "[3]": {"biological_target": "T6, AcpS+4Cys (SlyD tetracysteine sequence […] on AcpS) (Escherichia coli, UniProt P24224)", "T6 construct": "made in house; host or cells: Cell-free: Expressway in vitro protein synthesis kit, S30 E. coli extract, from a pRSET vector", "T6 sequence (P24224 with tags, fused parts or gaps)": "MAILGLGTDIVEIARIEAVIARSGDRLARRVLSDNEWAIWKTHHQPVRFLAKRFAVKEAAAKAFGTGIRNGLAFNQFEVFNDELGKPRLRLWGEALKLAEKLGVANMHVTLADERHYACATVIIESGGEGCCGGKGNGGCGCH", "test": "FlAsH-EDT2 labeling of in vitro synthesised protein, SDS-PAGE, UV light box", "format": "binding", "settings": "10 μM in LDS sample buffer, 70° C. 10 minutes; compared with CCPGCC; FIG. 14", "text": "A target sequence that includes the SlyD (SEQ. ID NO: 4) tetracysteine sequence, CCGGKGNGGCGC (SEQ. ID NO: 5) was introduced onto the Carboxy-terminus of Acyl Carrier Protein S (AcpS). Since AcpS has only one endogenous cysteine amino acid and since AcpS is a robust stable protein, a substitution at the Carboxy-terminus could be made without altering the solubility of the properly folded protein. […] ID NO: 6. The mutated AcpS is referred to as AcpS+4Cys. The substitutions were generated using polymerase chain reaction with primers specific for the encoding the expression of the desired tetracysteine sequence. The nucleic acid sequence encoding the cysteine substituted AcpS was inserted into the pRSET vector (Invitrogen, Carlsbad, Calif., Catalog #V351-20) using restriction sites inherent to the vector's multiple cloning site. After amplification in DH5 bacteria, the vector was expressed using in vitro transcription and translation. See also, U.S. Provisional Patent Application No. 60/614,590, filed Oct. 1, 2004 and U.S. patent application Ser. No. 10/954,951, filed Oct. 1, 2004, incorporated by reference herein in their entireties, disclosing additional compositions and methods for in vitro transcription and translation.\nIn vitro protein synthesis was carried out using the Expressway™ in vitro protein synthesis kit (Invitrogen, Carlsbad, Calif., Catalog #K9600-02). […]"}, "ACP": {"biological_target": "T7, ACP (Escherichia coli, UniProt P0A6A8)", "T7 construct": "inferred for this product (C); purchased Invitrogen, Madison, Wis; P3080", "T7 sequence (P0A6A8 with tags, fused parts or gaps)": "as the sequence (P0A6A8 with tags, fused parts or gaps) above", "test": "Specificity: labeling of a mixture of purified proteins, SDS-PAGE, laser gel scanner", "format": "binding", "settings": "10 μM in SDS-PAGE sample buffer; ACP:SlyD approximately 2:1; FIG. 17", "description": "ACP (Invitrogen, Madison, Wis., Catalog #P3080) was mixed at approximately 2:1 molar ratio with SlyD-His tag. The proteins were put in SDS-PAGE sample buffer supplemented with 10 μM FlAsH-EDT2, Cy3-EDT2, or Cy5-EDT2 and electrophoresed at 150 volts on a 4-20% Tris-glycine pre-cast Novex gel (Invitrogen, Carlsbad, Calif.). Immediately following electrophoresis the gel was imaged on a Fuji Film FLA 5000 laser gel scanner. […] Therefore, the SlyD tetracysteine sequence (SEQ. ID NO: 5) uniquely binds to biarsenical molecules and not to […]."}},
  "data": [
    {"molecule": "O=C(O)c1ccccc1-c1c2ccc(=O)c([As]3SCCS3)c-2oc2c([As]3SCCS3)c(O)ccc12", "note": "[FlAsH-EDT2]", "values": [
      {"measurement": "labeling of SlyD-C167A/C168A", "setting": "SlyD-C167A/C168A", "result": "identical labeling"},
      {"measurement": "labeling of SlyD+His tag", "setting": "SlyD+His tag", "result": "identical labeling"},
      {"measurement": "labeling of SlyD-trunc171 (only a vicinal pair of cysteines)", "setting": "SlyD-trunc171", "result": "only two cysteines are required for biarsenical labeling"},
      {"measurement": "labeling of the CCPGCC sequence (ACP)", "setting": "[1]", "result": "equivalent labeling"},
      {"measurement": "binding/labeling of SlyD+His tag", "setting": "[2]", "result": "binds to both SlyD+His tag and ACP"},
      {"measurement": "labeling of the CCGGKGNGGCGC sequence (AcpS+4Cys)", "setting": "[3]", "result": "equivalent labeling"},
      {"measurement": "binding/labeling of ACP", "setting": "ACP", "result": "binds to both SlyD+His tag and ACP"}
    ]}
  ]
}
